Measurements as given in patent US20110071180A1, “SUB-TYPE SELECTIVE AMIDES OF DIAZABICYCLOALKANES” (Targacept, Inc., priority 2008, published 2011).
Where two headings read alike, the source gives them in different places.

Key:
α7 nAChR subtype = target: T1, α7 nAChR subtype (Rattus norvegicus, UniProt Q05941); assay: Radioligand binding, [3H]MLA, rat hippocampus membranes; details: for inhibition at 5 µM: read-out: α7 high through-put screening (HTS) result
T1 construct: The hippocampus was removed and placed in 10 volumes (weight:volume) of ice-cold preparative buffer; from tissue; host or cells: rat hippocampus membranes (female Sprague-Dawley)
T1 sequence (Q05941 23-502): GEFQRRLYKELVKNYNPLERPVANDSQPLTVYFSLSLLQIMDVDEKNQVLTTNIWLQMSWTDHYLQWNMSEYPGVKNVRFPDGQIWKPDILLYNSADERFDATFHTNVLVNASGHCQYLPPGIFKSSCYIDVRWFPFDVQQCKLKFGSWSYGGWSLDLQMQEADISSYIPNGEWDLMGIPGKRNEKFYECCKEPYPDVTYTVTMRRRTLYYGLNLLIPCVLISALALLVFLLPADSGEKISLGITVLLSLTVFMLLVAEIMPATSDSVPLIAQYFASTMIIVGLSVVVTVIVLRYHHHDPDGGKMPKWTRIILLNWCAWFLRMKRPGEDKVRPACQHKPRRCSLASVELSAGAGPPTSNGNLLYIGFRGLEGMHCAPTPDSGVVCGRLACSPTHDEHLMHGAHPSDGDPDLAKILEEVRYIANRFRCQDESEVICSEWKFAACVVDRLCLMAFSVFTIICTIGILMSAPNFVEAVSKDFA
Method: Rats (female, Sprague-Dawley), weighing 150-250 g, were maintained on a 12 h light/dark cycle and were allowed free access to water and food supplied by PMI Nutrition International, Inc. Animals were anesthetized with 70% CO2, then decapitated. Brains were removed and placed on an ice-cold platform. The hippocampus was removed and placed in 10 volumes (weight:volume) of ice-cold preparative buffer (137 mM NaCl, 10.7 mM KCl, 5.8 mM KH2PO4, 8 mM Na2HPO4, 20 mM HEPES (free acid), 5 mM iodoacetamide, 1.6 mM EDTA, pH 7.4); PMSF, dissolved in methanol to a final concentration of 100 μM, was added and the tissue suspension was homogenized by Polytron. The homogenate was centrifuged at 18,000×g for 20 min at 4° C. and the resulting pellet was re-suspended in 10 volumes of ice-cold water. After 60 min incubation on ice, a new pellet was collected by centrifugation at 18,000×g for 20 min at 4° C. The final pellet was re-suspended in 10 volumes of buffer and stored at −20° C. On the day of the assay, tissue was thawed, centrifuged at 18,000×g for 20 min, and then re-suspended in ice-cold PBS (Dulbecco's Phosphate Buffered Saline, 138 mM NaCl, 2.67 mM KCl, 1.47 mM KH2PO4, 8.1 mM Na2HPO4, 0.9 mM CaCl2, 0.5 mM MgCl2, Invitrogen/Gibco, pH 7.4) to a final concentration of approximately 2 mg protein/mL. Protein was determined by the method of Lowry et al., J. Biol. Chem. 193: 265 (1951), using bovine serum albumin as the standard.
The binding of [^3H]MLA was measured using a modification of the methods of Davies et al., Neuropharmacol. 38: 679 (1999). [^3H]MLA (Specific Activity=25-35 Ci/mmol) was obtained from Tocris. The binding of [^3H]MLA was determined using a 2 h incubation at 21° C. Incubations were conducted in 48-well micro-titre plates and contained about 200 μg of protein per well in a final incubation volume of 300 μL. The incubation buffer was PBS and the final concentration of [^3H]MLA was 5 nM. The binding reaction was terminated by filtration of the protein containing bound ligand onto glass fiber filters (GF/B, Brandel) using a Brandel Tissue Harvester at room temperature. Filters were soaked in de-ionized water containing 0.33% polyethyleneimine to reduce non-specific binding. Each filter was washed with PBS (3×1 mL) at room temperature. Non-specific binding was determined by inclusion of 50 μM non-radioactive MLA in selected wells.
The inhibition of [^3H]MLA binding by test compounds was determined by including seven different concentrations of the test compound in selected wells. Each concentration was replicated in triplicate. IC50 values were estimated as the concentration of compound that inhibited 50 percent of specific [^3H]MLA binding. Inhibition constants (Ki values), reported in nM, were calculated from the IC50 values using the method of Cheng et al., Biochem. Pharmacol. 22: 3099-3108 (1973).

rat α4β2 nAChR subtype = target: T2, rat α4β2 nAChR subtype (Rattus norvegicus, UniProt P09483+P12390); assay: Radioligand binding, [3H]nicotine, rat cortex membranes; details: [3H]nicotine 5 nM
T2 construct: The cerebral cortex was removed and placed in 20 volumes (weight:volume) of ice-cold preparative buffer; from tissue; host or cells: rat cerebral cortex membranes (female Sprague-Dawley)
T2 sequence (P09483 31-630): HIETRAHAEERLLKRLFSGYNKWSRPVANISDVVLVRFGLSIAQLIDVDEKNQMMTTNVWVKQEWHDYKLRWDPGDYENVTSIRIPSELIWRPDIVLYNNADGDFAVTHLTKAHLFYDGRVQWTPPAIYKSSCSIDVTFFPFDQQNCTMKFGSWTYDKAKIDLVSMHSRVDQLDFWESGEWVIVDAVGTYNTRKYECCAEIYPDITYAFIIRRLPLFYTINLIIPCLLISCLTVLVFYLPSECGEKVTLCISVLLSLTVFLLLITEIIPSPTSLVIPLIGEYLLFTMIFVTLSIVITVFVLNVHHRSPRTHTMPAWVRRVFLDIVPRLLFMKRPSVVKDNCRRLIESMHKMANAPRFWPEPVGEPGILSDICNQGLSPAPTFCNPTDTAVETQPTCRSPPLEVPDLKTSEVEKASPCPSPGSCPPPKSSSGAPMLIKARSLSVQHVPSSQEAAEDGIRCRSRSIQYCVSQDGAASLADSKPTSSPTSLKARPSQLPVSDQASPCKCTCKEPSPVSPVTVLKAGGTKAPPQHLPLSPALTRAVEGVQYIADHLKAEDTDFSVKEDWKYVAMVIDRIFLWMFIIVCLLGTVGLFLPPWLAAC
T2 sequence (P12390 25-500): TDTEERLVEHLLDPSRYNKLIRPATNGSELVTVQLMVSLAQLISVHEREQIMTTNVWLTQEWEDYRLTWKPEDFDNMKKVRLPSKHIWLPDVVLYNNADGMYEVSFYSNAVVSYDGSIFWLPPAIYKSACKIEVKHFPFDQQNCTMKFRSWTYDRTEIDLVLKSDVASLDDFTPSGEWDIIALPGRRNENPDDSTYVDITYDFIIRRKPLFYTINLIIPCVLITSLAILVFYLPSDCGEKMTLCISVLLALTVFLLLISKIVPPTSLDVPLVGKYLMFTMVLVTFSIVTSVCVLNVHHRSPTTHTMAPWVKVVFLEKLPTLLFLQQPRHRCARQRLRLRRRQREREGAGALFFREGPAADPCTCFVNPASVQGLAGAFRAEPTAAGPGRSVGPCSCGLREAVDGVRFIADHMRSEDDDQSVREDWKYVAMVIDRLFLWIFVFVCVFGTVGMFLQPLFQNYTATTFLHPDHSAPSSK
Method: Preparation of Membranes from Rat Cortex: Rats (Female, Sprague-Dawley), weighing 150-250 g, were maintained on a 12 h light/dark cycle and were allowed free access to water and food supplied by PMI Nutrition International, Inc. Animals were anesthetized with 70% CO2, and then decapitated. Brains were removed and placed on an ice-cold platform. The cerebral cortex was removed and placed in 20 volumes (weight:volume) of ice-cold preparative buffer (137 mM NaCl, 10.7 mM KCl, 5.8 mM KH2PO4, 8 mM Na2HPO4, 20 mM HEPES (free acid), 5 mM iodoacetamide, 1.6 mM EDTA, pH 7.4); PMSF, dissolved in methanol to a final concentration of 100 μM, was added and the suspension was homogenized by Polytron. The homogenate was centrifuged at 18,000×g for 20 min at 4° C. and the resulting pellet was re-suspended in 20 volumes of ice-cold water. After 60 min incubation on ice, a new pellet was collected by centrifugation at 18,000×g for 20 min at 4° C. The final pellet was re-suspended in 10 volumes of buffer and stored at −20° C.
(§1) On the day of the assay, the frozen membranes were thawed and spun at 48,000×g for 20 min. The supernatant was decanted and discarded. The pellet was resuspended in Dulbecco's phosphate buffered saline (PBS, Life Technologies) pH 7.4 and homogenized with the Polytron for 6 seconds. Protein concentrations were determined using a Pierce BCA Protein Assay Kit, with bovine serum albumin as the standard (Pierce Chemical Company, Rockford, Ill.).
(§2) Membrane preparations (approximately 50 μg for human and 200-300 μg protein for rat α4β2) were incubated in PBS (50 μL and 100 μL respectively) in the presence of competitor compound (0.01 nM to 100 μM) and 5 nM [^3H]nicotine for 2-3 hours on ice. Incubation was terminated by rapid filtration on a multi-manifold tissue harvester (Brandel, Gaithersburg, Md.) using GF/B filters presoaked in 0.33% polyethyleneimine (w/v) to reduce non-specific binding. Tissue was rinsed 3 times in PBS, pH 7.4. Scintillation fluid was added to filters containing the washed tissue and allowed to equilibrate. Filters were then counted to determine radioactivity bound to the membranes by liquid scintillation counting (2200CA Tri-Carb LSC, Packard Instruments, 50% efficiency or Wallac Trilux 1450 MicroBeta, 40% efficiency, Perkin Elmer).
(§3) Data were expressed as disintegrations per minute (DPMs). Within each assay, each point had 2-3 replicates. The replicates for each point were averaged and plotted against the log of the drug concentration. IC50, which is the concentration of the compound that produces 50% inhibition of binding, was determined by least squares non-linear regression. Ki values were calculated using the Cheng-Prussof equation (1973): […]

human α4β2 nAChR subtype = target: T3, human α4β2 nAChR subtype (Homo sapiens, UniProt P17787+P43681); assay: Radioligand binding, [3H]nicotine, membranes from SH-EP1/human α4β2 clonal cells; details: [3H]nicotine 5 nM, SH-EP1/human α4β2 cell membranes
T3 construct: expressed in transfected cells; host or cells: SH-EP1 clonal cells expressing human α4β2
T3 sequence (P43681 29-627 limits assumed): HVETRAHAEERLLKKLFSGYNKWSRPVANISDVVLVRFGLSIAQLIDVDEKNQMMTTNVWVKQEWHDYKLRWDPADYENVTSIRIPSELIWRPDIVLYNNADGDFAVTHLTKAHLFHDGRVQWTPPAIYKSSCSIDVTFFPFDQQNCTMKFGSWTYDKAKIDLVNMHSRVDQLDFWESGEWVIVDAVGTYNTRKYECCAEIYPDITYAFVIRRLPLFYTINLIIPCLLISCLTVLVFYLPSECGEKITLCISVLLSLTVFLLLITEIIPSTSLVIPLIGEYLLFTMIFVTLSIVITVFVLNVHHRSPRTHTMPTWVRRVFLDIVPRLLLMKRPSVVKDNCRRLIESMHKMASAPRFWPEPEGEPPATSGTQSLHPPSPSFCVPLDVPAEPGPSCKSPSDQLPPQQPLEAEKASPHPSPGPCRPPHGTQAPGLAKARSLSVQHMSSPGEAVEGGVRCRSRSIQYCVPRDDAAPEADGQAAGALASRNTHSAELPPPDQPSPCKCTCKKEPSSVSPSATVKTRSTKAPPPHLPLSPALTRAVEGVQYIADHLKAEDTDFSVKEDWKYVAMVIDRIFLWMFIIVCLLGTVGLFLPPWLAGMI
T3 sequence (P17787 26-502): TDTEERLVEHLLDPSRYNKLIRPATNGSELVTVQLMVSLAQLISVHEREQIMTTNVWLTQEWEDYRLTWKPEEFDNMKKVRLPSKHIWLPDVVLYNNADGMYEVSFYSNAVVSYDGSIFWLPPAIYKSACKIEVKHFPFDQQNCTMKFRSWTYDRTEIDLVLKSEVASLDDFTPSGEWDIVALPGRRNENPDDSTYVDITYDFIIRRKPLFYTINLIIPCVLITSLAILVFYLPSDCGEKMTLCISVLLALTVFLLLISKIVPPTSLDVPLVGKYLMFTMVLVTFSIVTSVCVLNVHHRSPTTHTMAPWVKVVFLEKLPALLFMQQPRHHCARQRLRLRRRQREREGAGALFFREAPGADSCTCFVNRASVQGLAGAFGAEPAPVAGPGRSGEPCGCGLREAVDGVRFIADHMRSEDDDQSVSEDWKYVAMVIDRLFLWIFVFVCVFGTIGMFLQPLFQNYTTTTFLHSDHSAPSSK
Method: Preparation of membranes from SH-EP1/human α4β2 clonal cells: Cell pellets from 40 150 mm culture dishes were pooled, and homogenized by Polytron (Kinematica GmbH, Switzerland) in 20 milliliters of ice-cold preparative buffer. The homogenate was centrifuged at 48,000 g for 20 minutes at 4° C. The resulting pellet was re-suspended in 20 mL of ice-cold preparative buffer and stored at −20° C.
as §1, §2, §3

[1] = [3H]MLA 5 nM, rat hippocampus membranes, read-out: α7 Ki

Structure (SMILES)	inhibition at 5 µM (α7 nAChR subtype) [%]	Ki (rat α4β2 nAChR subtype) [nM]	Ki (human α4β2 nAChR subtype) [nM]	Ki (α7 nAChR subtype; α7 Ki) [nM]	Ki (α7 nAChR subtype; [1]) [nM]
O=C(C1CC12CCC2)N1CC2CNCC2C1 (stereo not drawn) [Example 10-26]	< 50	6.3	4		
O=C(CO)N1CC2CNCC2C1 (stereo not drawn) [Example 10-27]	< 50	264	202		
O=C([C@H]1C[C@H]1F)N1CC2CNCC2C1 (stereo partly drawn) [Example 10-28]	< 50	10	2.9		
O=C([C@H]1C[C@@H]1F)N1CC2CNCC2C1 (stereo partly drawn) [Example 10-29]	< 50	21.3	5.9		
O=C(CCF)N1CC2CNCC2C1 (stereo not drawn) [Example 10-30]	< 50	22.4	14.8		
CC(C)C(=O)N1CC2CNCC2C1 (stereo not drawn) [Example 10-31]	< 50	56	28.6		
CC(C)(C)C(=O)N1CC2CNCC2C1 (stereo not drawn) [Example 10-32]	< 50	15.8	8.1		
O=C(C1CC(F)C1)N1CC2CNCC2C1 (stereo not drawn) [Example 10-33]	< 50	7.2	18		
O=C(CC1CC1)N1CC2CNCC2C1 (stereo not drawn) [Example 10-34]	< 50	62.7	105		
CS(=O)(=O)CC(=O)N1CC2CNCC2C1 (stereo not drawn) [Example 10-35]	< 50	238	345		
O=C([C@H]1C[C@@H]1F)N1CC2CNCC2C1 (stereo partly drawn) [Example 10-36]		34.3	17.2	25300	
O=C([C@@H]1C[C@H]1F)N1CC2CNCC2C1 (stereo partly drawn) [Example 10-37]	< 50	12.2	4.9		
O=C([C@H]1C[C@H]1F)N1CC2CNCC2C1 (stereo partly drawn) [Example 10-38]	< 50	9.7	30		
O=C([C@@H]1C[C@@H]1F)N1CC2CNCC2C1 (stereo partly drawn) [Example 10-39]	< 50	6.6	3.8		
CC(F)(F)C(=O)N1CC2CNCC2C1 (stereo not drawn) [Example 10-40]	< 50	8.6	9.8		
CC(C)(F)C(=O)N1CC2CNCC2C1 (stereo not drawn) [Example 10-41]	< 50	12	26.9		
O=C(C1CC2CCC1C2)N1CC2CNCC2C1 (stereo not drawn) [Example 10-42]	< 50	139	64.6		
O=C(C1CC2C=CC1C2)N1CC2CNCC2C1 (stereo not drawn) [Example 10-43]	< 50	34	15.8		
O=C([C@@H]1CC2C=CC1C2)N1CC2CNCC2C1 (stereo partly drawn) [Example 10-44]	< 50	9.3	3.4		
O=C(C1C2CCCCC21)N1CC2CNCC2C1 (stereo not drawn) [Example 10-45]		26	8.6		508
O=C(C1C[C@H]2C=C[C@@H]1CC2)N1CC2CNCC2C1 (stereo partly drawn) [Example 10-46]	< 50	236	44.5		
O=C1CCCC2=C1CC(C(=O)N1CC3CNCC3C1)CC2 (stereo not drawn) [Example 10-47]	< 50	369	419		
O=C(C1CC=CCC1c1cccnc1)N1CC2CNCC2C1 (stereo not drawn) [Example 10-48]	< 50	999	345		
O=C(C1CC=CCC1)N1CC2CNCC2C1 (stereo not drawn) [Example 10-49]	< 50	236	133		
C[C@@H]1C(C(=O)N2CC3CNCC3C2)[C@@H]1C (stereo partly drawn) [Example 10-51]		17.6	44.6		4790
CC1C(C)C1C(=O)N1CC2CNCC2C1 (stereo not drawn) [Example 10-52]	< 50	133	12.2		
COC1CC(C(=O)N2CC3CNCC3C2)C1 (stereo not drawn) [Example 10-53]	< 50	83.7	147		
O=C(C1CC(F)(F)C1)N1CC2CNCC2C1 (stereo not drawn) [Example 10-54]	< 50	20.3	5.7		
CC(=O)N1CC2CNCC(C2)C1 [Example 10-55]		18.7	20.2		3280
